# Data as given in patent US20120041062A1, “COMPOUND OF SALVIANOLIC ACID L, PREPARATION METHOD AND USE THEREOF” (Tianjin Tasly Pharmaceutical Co., Ltd., priority 2009, published 2012).
# Key:
# H2O2-damaged PC12 cell [1] = test: Cell survival rate of H2O2-damaged PC12 cell (MTT method); type: cell-based; settings: pre-treated 6 hours, 0.5 mM H2O2 1 hour
# Description: (§1) a. MTT was added into 96-well microplate with 20 μl in each well, and reacted for 4 hours in incubator.
# (§2) b. The supernatant was discarded, followed by addition of 150 μl DMSO in each well and shaken on flat shaking-table for 10 min.
# (§3) c. Absorbance of each well was measured by ELISA reader at wavelength of 570 nm to calculate cell survival rate.
# (§4) Cell survival rate %=(OD value of drug administration group/OD value of negative control group)×100%
# (§5) a. PC12 cells at, exponential growth phase in good condition were washed with PBS twice, followed by addition of 0.25% trypsin digestive solution to perform digestion at 37° C. for about 1 min. This reaction was ended by addition of blood serum-contained culture medium, centrifuged and resuspended, then counted the cells to prepare a suspension with a cell density of 2×10^4−4×10^4 cells/ml.
# (§6) b. The resulting cell suspension was inoculated into 96-well microplate with 180 μl in each well (n=3) and incubated in constant temperature CO2 incubator at 37° C. for 24 hours.
# c. Grouping and treatments: there were 4 groups: blank control group (PBS), solvent control group (DMSO), model group (H2O2) and positive control group (Edaravone).
# Positive control group: Edaravone (2 μg/ml) is added as a positive drug and then pre-treated for 6 hours, into which 0.5 mM hydrogen peroxide was added to damage for 1 hour and replaced with freshly-prepared DMEM+10%FBS culture medium, 200 μl per well.
# (§7) d. The cell activity was determined by MTT method.
# as §5, with “at” for “at,”
# (§8) c. Grouping and treatments: there were 5 groups: blank control group (PBS), solvent control group (DMSO or ethyl acetate), model group (H2O2), positive control group (Edaravone) and drug treatment group.
# (§9) Model group: 0.5 mM hydrogen peroxide (H2O2) was used to treat for 1 hour.
# (§10) Positive control group: Edaravone (2 μg/ml ), used as a positive drug, was added to cell and pre-treated for 6 hours, into which 0.5 mM hydrogen peroxide was added to damage for 1 hour and replaced with freshly-prepared DMEM+10%FBS culture medium.
# (§11) Drug treatment group: after the cell was inoculated into culture microplate, different tested drugs at different concentration were added firstly and pre-treated for 6 hours with 20 μl per well, into which 0.5 mM H2O2 was added to damage for 1 hour, and then replaced with freshly-prepared DMEM+10%FBS culture medium.
# e. The activity of cell in cell microplate was determined by MTT method.
# H2O2-damaged PC12 cell [2] = test: LDH activity of H2O2-damaged PC12 cell; type: cell-based; settings: pre-treated 6 hours, 0.5 mM H2O2 1 hour, supernatant
# Description: (§12) The experiment of determination was carried out according to the Specification of LDH test kit provided by Nanjing Jiangcheng Bioengineering Institute.
# (§13) LDH activity (U/L)=(ODU−ODC)/(ODS−ODB)×CS×N×1 000
# (§14) Wherein, ODU represented the absorbance of the tested sample, ODC represented the absorbance of control sample, ODB represented the absorbance of blank, ODS represented the absorbance of standard solution, CS represented the standard concentration of 2 mmol/L, N represented the dilution multiple of sample before determination.
# as §5, with “at” for “at,”
# as §6, §8, §9, §10, §11
# d. The supernatant was collected, 20 μl per well, for determination of LDH activity.
# [3] = system: PC12 cell of oxygen-glucose deprivation; test: Cell survival rate of PC12 cell of oxygen-glucose deprivation (MTT method); type: cell-based; settings: pre-treated 6 hours
# Description: as §1, §2, §3, §4
# as §5, with “at” for “at,”
# as §6
# c. Grouping and treatments: there were 3 groups: blank control group (normoxia+0.1% DMS0), model group (OGD+0.1% DMSO, oxygen-glucose deprivation) and positive control group (Edaravone).
# Model group: the cell in culture microplate was cultured with glucose-free DMEM medium, which was placed in a hypoxic chamber, started to record time for 0.5 hour when O2% was less than 2.6, and then transferred to a routine incubator. The determination was carried out after a period of time of incubation.
# Positive control group: Edaravone (2 μg/ml) was used as a positive drug. Drug was added and pre-treated for 6 hours, and then replaced with glucose-free medium, 180 μl per well. The drug was added again, placed in a hypoxic chamber, started to record time for 0.5 hour when O2% was less than 2.6, and then transferred to a routine incubator. The determination was carried out after a period of time of incubation.
# as §7
# (§15) c. Grouping and treatments: there were 4 groups: blank control group (normoxia+0.1% DMSO), model group (OGD+DMSO, oxygen-glucose deprivation), positive control group (Edaravone) and the drug treatment group.
# (§16) Model group: the culture medium for the cells in microplate was changed to glucose-free DMEM, placed in a hypoxic chamber, and started to record time for 0.5 hour when O2% was less than 2.6, and then transferred to a routine incubator to culture overnight.
# (§17) Positive control group: Edaravone (2 μg/ml ) was used as a positive drug. Drug was added and pre-treated for 6 hours, and then the culture medium was replaced with glucose-free DMEM medium, 180 μl per well. The drug was added again, placed in a hypoxic chamber, started to record time for 0.5 hour when 02% was less than 2.6, and then transferred to a routine incubator to culture overnight.
# (§18) Drug treatment group: the drug at different concentrations was added and pre-treated for 6 hours, the culture medium was changed to glucose-free DMEM medium, 180 μl per well. The drug was added again, placed in a hypoxic chamber, started to record time for 0.5 hour when O2% was less than 2.6, and then transferred to a routine incubator to culture overnight.
# e. The activity of cell was determined by MTT method.
# [4] = system: PC12 cell of oxygen-glucose deprivation (OGD); test: LDH activity of PC12 cell of oxygen-glucose deprivation (OGD); type: cell-based; settings: pre-treated 6 hours, OGD 0.5 hour, cultured overnight, supernatant
# Description: as §12, §13, §14
# as §5, with “at” for “at,”
# as §6, §15, §16, §17, §18
# d. Resulting supernatant was collected the next day with 20 μl per well, which was used for determination of LDH activity.
# [5] = DPPH free-radical scavenging reaction; type: biochemical; settings: for DPPH free-radical scavenging rate: 20 min, 25° C., 517 nm
# Description: In this study, 1,1-diphenyl-2-picryl-hydrazyl (DPPH) free-radical scavenging reaction model has been used to observe the free-radical scavenging activity of the salvianolic acid L. The total reaction volume was 2 ml. 1 ml of the sample solutions at different concentrations in 80% methanol (v/v) were added into 100 μM of DPPH methanol solution, mixed uniformly to allow the solution to react for 20 min at 25° C. in the dark. Absorbance of the reaction solution was measured at 517 nm. In this study, vitamin C was regarded as a positive control. Free-radical scavenging rate was calculated in accordance with the following equation: Free-radical scavenging rate (%)=[1−Asample/Acontrol)/Acontrol]×100% Wherein, the Asample means the absorbance of the tested samples, and Acontrol means the absorbance of blank control.
# [6] = Determination of reducing capacity (potassium ferricyanide / ferric chloride, absorbance at 700 nm); type: biochemical; settings: FIG. 10; in words, compared with vitamin C
# Description: 0.5 ml of 200 mM phosphate buffer (pH6.8) containing different concentrations of the salvianolic acid L and 1.0% potassium ferricyanide solution were sucked respectively and cooled on an ice bath after being heated on a water bath (50° C.) for 20 min. 0.5 ml of trichloroacetic acid solution (10%) was added and centrifuged at […] for 10 min. 1.0 ml of the resulting supernatant was taken, into which 1.0 ml of distilled water and 0.2 ml of ferric chloride solution (0.1%) were added, stood still for 10 min and the absorbance was measured at 700 nm. Meanwhile, the blank experiment was carried out. Vitamin C is a strongly reducing substance, acting as positive control in this study. Reducing capacity of the sample is represented by subtracting the absorbance of the blank control from the absorbance of the tested sample. Thus, it means the higher absorbance, the stronger reducing capacity.
# [7] = final concentration 0.02 μg/ml, OGD 0.5 hour, cultured overnight
# [8] = final concentration 0.2 μg/ml, OGD 0.5 hour, cultured overnight
# [9] = final concentration 2 μg/ml, OGD 0.5 hour, cultured overnight
SMILES,Survival rate (%) (H2O2-damaged PC12 cell [1]; final concentration 0.02 μg/ml),Survival rate (%) (H2O2-damaged PC12 cell [1]; final concentration 0.2 μg/ml),Survival rate (%) (H2O2-damaged PC12 cell [1]; final concentration 2 μg/ml),LDH activity (U/L) (H2O2-damaged PC12 cell [2]; final concentration 0.02 μg/ml),LDH activity (U/L) (H2O2-damaged PC12 cell [2]; final concentration 0.2 μg/ml),LDH activity (U/L) (H2O2-damaged PC12 cell [2]; final concentration 2 μg/ml),"Survival rate (%) [3, 7]","Survival rate (%) [3, 8]","Survival rate (%) [3, 9]",LDH activity (U/L) ([4]; final concentration 0.02 μg/ml),LDH activity (U/L) ([4]; final concentration 0.2 μg/ml),LDH activity (U/L) ([4]; final concentration 2 μg/ml),DPPH free-radical scavenging rate ([5]; sample 0.314 μg/ml),DPPH free-radical scavenging rate ([5]; sample 0.625 μg/ml),DPPH free-radical scavenging rate ([5]; sample 1.25 μg/ml),DPPH free-radical scavenging rate ([5]; sample 2.5 μg/ml),DPPH free-radical scavenging rate ([5]; sample 5 μg/ml),further results
CC1=NN(c2ccccc2)C(=O)C1 [Edaravone],47.6 ± 2 %,44.2 ± 6.11%,58.18 ± 2.64 %,532.44 ± 11.55 U/L,568.23 ± 11.55 U/L,523.49 ± 5.17 U/L,44.75 ± 1.02 %,36.37 ± 2.52 %,39.99 ± 0.55 %,40.27 ± 5.17 U/L,22.37 ± 5.17 U/L,31.32 ± 5.17 U/L,,,,,,"Survival rate (%) (H2O2-damaged PC12 cell [1]; establishment of hydrogen peroxide-damaged model, 2 μg/ml): 53.54 ± 3.66 %; Survival rate (%) ([3]; establishment of oxygen-glucose deprivation model, 2 μg/ml): 48.50 ± 1.81 %"
O=C1O[C@H]([C@@H](O)CO)C(O)=C1O [Vitamin C],,,,,,,,,,,,,3.42 ± 0.42%,7.06 ± 1.88%,13.82 ± 1.83%,29.39 ± 5.92%,55.34 ± 7.21%,
O=C(/C=C/c1ccc(O)c(O)c1/C(=C/c1ccc(O)c(O)c1)C(=O)O)OC(Cc1ccc(O)c(O)c1)C(=O)O (centres unmarked) [salvianolic acid L],47.2 ± 0.8 %,44.89 ± 0.48%,48.34 ± 0.25%,550.336 ± 25.83 U/L,474.27 ± 71.96 U/L,487.70 ± 72.51 U/L,47.74 ± 1.72 %,36.68 ± 2.72 %,35.96 ± 1.44%,53.69 ± 29.23 U/L,31.32 ± 11.55 U/L,40.27 ± 5.17 U/L,5.41 ± 0.74%,12.95 ± 2.42%,25.21 ± 1.82%,44.19 ± 3.70%,83.17 ± 4.12%,"DPPH free-radical scavenging rate (in words) ([5]; compared with vitamin C, Table 3 and FIG. 9): much higher free-radical scavenging rate than that of the vitamin C; reducing capacity (absorbance at 700 nm minus blank) [6]: much stronger than that of vitamin C"
